Experimental data from patent publication EP4567167A1, “ELECTROSPUN FIBERS COMPRISING SURFACE-REACTED CALCIUM CARBONATE AND ACTIVE INGREDIENTS” (Omya International AG, priority 2023, dated 2025).

Test: Production of drug-loaded fibers without SRCC by electrospinning
Settings: PCL in chloroform/acetone
Description: The spinning dispersion was prepared by mixing the solid carriers into a 15%, w/w solution of PCL, that was dissolved in a mix of chloroform/acetone, (40/60,w/w). The polymer solution was prepared separately. Therefore, the polymer was added slowly to avoid formation of clumps and subsequently stirred for at least 24 h at room temperature.
The emitter was an assembly of 4 blunt needles (21G) that were surrounded by nitrogen gas saturated with acetone (Figure 3 b)) to avoid bearding at the tip of the needles due to fast evaporation of solvents from the polymer solution. The lateral movement was adapted to the width of the drum collector (0.3 m) at a speed of approx. 0.1 m/s. Working distance (distance between emitter and collector) was 0.2 m and liquid feed rate was kept at 3ml/h for each needle using a syringe pump. A total of 30 ml was spun. The potential was adjusted to approx. -20kV ± 2kV in order to maintain a stable spray. The dimensions of the collector (rotating drum) were 0.3 m in width and a diameter of 0.1 m. The drum was rotated at 500 rpm. The drum was covered with aluminum and finally coated with magnesium-stearate to avoid the product from adhering/sticking to the aluminum foil. The process was constantly supervised. Needles were cleaned and the electric potential was adjusted when necessary to maintain a stable spinning process.

**Q.** Which “solubility in the spinning solution” value does the source give for Nc1nc2c(ncn2COCCO)c(=O)[nH]1 [Acyclovir] here?
**A.** too low
